# Data: patent EP0947820A2, “Method for sample preparation” (Evotec BioSystems GmbH, priority 1998, dated 1999)
# Biological target: HIV Reverse Transcriptase (HIV-RT) (Human immunodeficiency virus type 1 group M subtype B, UniProt P04585)
# Test: primer extension assay using HIV Reverse Transcriptase after dry-storage of the inhibitor, read out by FCS
# Type: biochemical
# Details: stored in a desiccator overnight at room-temperature, reaction 40°C, 2 min
# Procedure: The method, according to claim 1 was used for a primer extension assay using HIV Reverse Transcriptase (HIV-RT). Precoating the assay plate: 1 µl aliquots of 0.1% (w/v) aqueous solution of HBC (2-hydroxypropyl-β-cyclodextrin) was pipetted into the wells of a nanotiter plate and subjected to a flow of nitrogen gas until all the solvent (water) was evaporated. […] As a control, a section of the nanotiter plate was not coated with HBC. The plate was subsequently loaded with 1 µl (1 mg/ml) of the HIV Reverse Transcriptase Inhibitor AZT (3'Azido-3'deoxythymidine) contained in 50 mM DMSO/ 10 mM NaCl. The solvent (DMSO/water) evaporated by exposure to a flow of nitrogen gas at room-temperature. As a control, some wells of the nanotiter plate (coated and non-coated) were not charged with AZT. The plates were stored in a desiocator overnight at room-temperature.
# The primer extension assay was performed by pipetting 900 nanoliter of a reaction mix containing: 2 pmol TMR-lablled 20 base oligo deoxynucleotide anneald to a 200 base RNA-template (gag region of the HIV genome), 50 mM Tris-HCl pH 8.2, dissolved, 50 mM NaCl, 1 mM of each dNTP. The nanotiter plate was incubated at 40°C for 2 min and the extension reaction stopped by the addition of 100 nanoliter 0.5 M EDTA. The primer extension products were analyzed by FCS.
# • 1. […]
smiles,measurement,setting,value
"Cc1cn([C@H]2C[C@H](N=[N+]=[N-])[C@@H](CO)O2)c(=O)[nH]c1=O [AZT, 3'Azido-3'deoxythymidine]",Primer extension,AZT 1 µl (1 mg/ml) dried in nanotiter plate wells not coated with HBC,only partially inhibited
same,Primer extension,AZT 1 µl (1 mg/ml) dried in nanotiter plate wells precoated with HBC (1 µl of 0.1% w/v),inhibited
